For one assay, the system named is HCT-8. Nature of the assay: Cytotoxicity against human HCT8 cells. It is filed as functional, cell-based.
Assay [1] concerns KB. Nature of the assay: Cytotoxicity against human KB cells. The format is functional, cell-based.
For assay [2], the system named is KB. Put plainly: Cytotoxicity against human KB cells at 10 ug/ml. It is filed as functional.

The IC50 is the concentration that inhibits the measured activity by half. A low value points to inhibition by little substance. For `CCCCCCCCCCCC[C@@H](O)[C@H]1CC[C@H]([C@H](O)CCCCCCCCCC[C@@H](O)CC2=CC(C)(O)OC2=O)O1` (mixture of isomers), the figures for the IC50 in the assay with HCT-8 and in the assay with KB [1] were less than 10 µg/mL and less than 1 µg/mL, respectively.
What is called inhibition is how much of the control response was suppressed. `CCCCCCCCCCCCCC[C@H](O)[C@@H](O)CC[C@H](O)[C@@H]1CC[C@@H](CCCCC[C@@H](O)CC2=CC(C)(O)OC2=O)O1` (mixture of isomers) [DONNAIENIN B/34-EPI-DONNAIENIN B]: the inhibition at 10 µg/mL with KB [2] is 53.8%.

These data come from ChEMBL document CHEMBL1145692, “New Type of Mono-tetrahydrofuran Ring Acetogenins from Goniothalamus donnaiensis” (J Nat Prod, 1997).
